Measurements published in US7691874B2, “Neuroprotective properties of dextrorotatory morphinans” (priority 2004, dated 2010).
Marks after values point to notes of the source that are not given here.

Assays:
MA-treated mice [1] = assay: Striatal dopamine and metabolites in MA-treated mice; format: in vivo; settings: for Concentration DA in the striatum: 3 days after final MA
Source text: Mice were sacrificed at 3 days after final MA injection.

MA-treated mice [2] = assay: Methamphetamine (MA)-induced hyperthermia; format: in vivo; settings: 24 mg/kg; MA 7.5 mg/kg i.p. x 4 at 2-h intervals
Protocol: Rectal temperature was recorded at 40 min after each MA treatment. […] Mice were sacrificed at 3 days after final MA injection.
FIGS. 10A-10B show effect of morphinans on the methamphetamine (MA)-induced hyperthermia. Mice received i.p. injections of MA (four injections of 7.5 mg/kg each) at 2-h intervals under the ambient temperature of 22.0±0.5° C. Temperatures were recorded at 40 min after each MA treatment (Arrow=MA injection).

LPS-treated mice [3] = assay: LPS model, HM versus L-dopa/carbidopa: locomotor activity; format: in vivo; settings: 3 weeks after LPS
Protocol: Locomotor activity was examined for 60 min at 3 weeks after LPS treatment. LPS-induced significant reduction (P<0.01 vs. saline treatment) in locomotor activity was attenuated by L-dopa (P<0.05), carbidopa+L-dopa (P<0.05) or HM (P<0.01) (FIGS. 24 and 25).

C57 BL/6 mice = assay: Conditioned place preference (psychological dependence) following repeated administration of morphinans or PCP; format: in vivo; settings: 20 or 40 mg/kg i.p. (PCP 2.5 or 5 mg/kg); vs saline
Protocol: On day 14, the guillotine doors were raised. […] Data were analyzed between 0900 and 1700 hr.

MA-treated mice [4] = assay: Nigral TH-IR in MA-treated mice; settings: 24 mg/kg i.p.
[5] = system: kainate or maximal electric shock; settings: kainate (24) or maximal electric shock (27); cited from earlier work
MA-treated mice [6] = assay: MA model, HM versus L-dopa/carbidopa: nigral TH-IR; settings: mouse, in vivo
Source text: FIGS. 33A-33G show effects of carbidopa, L-dopa, carbidopa plus L-dopa, and HM on the nigral tyrosine hydroxylase-like immunoreactivity (TH-IR) of the mice treated with MA. […] Magnification=40×.

MA-treated mice [7] = assay: Hypokinesia induced by MA; format: in vivo; settings: 12 and 24 mg/kg; 3 days after final MA
MPTP-treated mice [8] = assay: MPTP model, HM versus L-dopa/carbidopa: locomotor activity; format: in vivo; settings: HM 24 mg/kg i.p., L-dopa 200 mg/kg p.o., carbidopa 20 mg/kg p.o., 2 weeks before MPTP
Protocol: FIGS. 20A-20B show effects of carbidopa, L-dopa, carbidopa+L-dopa and HM on the changes in locomotor activity (A) and locomotor pattern (B) induced by MPTP in mice.
(§1) A prescription drug for treating Parkinsonian patients is L-dopa or carbidopa plus L-dopa. Thus, the neuroprotective effects of HM was compared with L-dopa, carbidopa, or carbidopa plus L-dopa. […] Locomotor activity was examined for 60 min after final treatment of MPTP. Mice were sacrificed at 24 h after final MPTP administration. HM (24 mg/kg, i.p.), L-dopa (200 mg/kg, p.o.) with or without carbidopa (20 mg/kg, p.o.) was administered for 2 weeks before first MPTP challenge.

LPS-treated mice [9] = assay: LPS model, HM versus L-dopa/carbidopa: mortality; format: in vivo; settings: intrastriatal LPS 2 μg x 4/head; 2 weeks
Protocol: Mortality was observed by 2 weeks after LPS injection. *P<0.01 vs. Saline+LPS (x^2-test).
The neuroprotective effect of HM was compared with L-dopa, carbidopa, or carbidopa plus L-dopa in response to dopaminergic damage induced by LPS. Intrastriatal injection of LPS (2 μg×4/head) produced high mortality (ten animals died out of twelve animals in the 2 weeks after LPS administration).

MPTP-treated mice [10] = assay: MPTP model, HM versus L-dopa/carbidopa: nigral TH-IR; format: in vivo; settings: HM 24 mg/kg i.p., L-dopa 200 mg/kg p.o., carbidopa 20 mg/kg p.o.
Protocol: FIGS. 21A-21G show effects of carbidopa, L-dopa, carbidopa+L-dopa and HM on the nigral tyrosine hydroxylase-like immunoreactivity (TH-IR) of the mice treated with MPTP. […] Magnification=40×.
as §1

cocaine-treated mice [11] = assay: Cocaine-induced conditioned place preference with CB1 modulation
Protocol: The control mice received an i.p. injection of saline just before entering the white or black compartment. Cocaine or MA dissolved in saline was administered immediately before the mice were placed in the white compartment. To test the effect of cocaine alone or MA alone or in combination with exemplified morphinans (DM, HM, AM, CM or DF), each morphinan was administered 2 hr before cocaine or saline injection.
On day 1, the mice were pre-exposed to the test apparatus for 5 min. The guillotine doors were raised and the mice were allowed to move freely between the two compartments. On day 2, the time each mouse spent in each compartment was recorded for 15 min. On days 3, 5, 7, 9, 11, and 13, the mice were injected with cocaine before being confined to the white compartment, the non-preferred side, for 20 min. On days 4, 6, 8, 10, and 12, the mice were injected with saline before being confined to the black compartment, the preferred side, for 20 min. On day 14, the guillotine doors were raised. The mice were initially placed in the tunnel and the time spent by the mice in the two compartments was recorded for 15 min. The scores were calculated from the differences in the time spent in the white compartment in the testing and pre-testing phases.

LPS-treated mice [12] = assay: Striatal dopamine and metabolites in LPS-treated mice; format: in vivo; settings: for Concentration DA in the striatum: 3 weeks after LPS
Source text: Control animals received striatal injection with PBS.
Mice were sacrificed at 3 weeks after LPS treatment.

cocaine-treated mice [13] = assay: Cocaine-induced Fos-related antigen-immunoreactivity (FRA-IR) in the striatum; settings: cocaine 5 mg/kg; morphinan 20 mg/kg i.p.

Oc1ccc2c(c1)[C@@]13CCCC[C@H]1[C@@H](C2)NCC3 [HM, 3-hydroxymorphinan]
effect on MA-induced reductions in striatal DA, DOPAC and HVA (MA-treated mice [1]; 24 mg/kg pretreatment): significantly protected | Concentration DOPAC in the striatum (MA-treated mice [1]; morphinan 12 (mg/kg) + MA): 88 ± 10 ng/100 mg wet tissue | Concentration HVA in the striatum (MA-treated mice [1]; morphinan 12 (mg/kg) + MA): 82 ± 8 ng/100 mg wet tissue | Concentration DA in the striatum (MA-treated mice [1]; morphinan 12 (mg/kg) + MA, mean ± S.E.M., 8 animals): 685 ± 64 ng/100 mg wet tissue | Concentration DOPAC in the striatum (MA-treated mice [1]; morphinan 24 (mg/kg) + MA): 103 ± 9^d^ ng/100 mg wet tissue | Concentration HVA in the striatum (MA-treated mice [1]; morphinan 24 (mg/kg) + MA): 100 ± 11^c ng/100 mg wet tissue | Concentration DA in the striatum (MA-treated mice [1]; morphinan 24 (mg/kg) + MA): 864 ± 82^d ng/100 mg wet tissue | effect on MA-induced hyperthermia (rectal temperature) (MA-treated mice [2]): most efficacious | effect on LPS-induced reduction in locomotor activity (LPS-treated mice [3]): attenuated | conditioned place preference (CPP) (C57 BL/6 mice): almost no CPP effects | effect on MA-induced decrease in nigral TH-positive cells (MA-treated mice [4]): significantly attenuated the decrease in TH-positive cells | anticonvulsant effect [5]: did not show any anticonvulsant effect | effect on MA-induced nigral loss in TH-IR (MA-treated mice [6]): more pronounced than that of carbidopa+L-dopa | effect on MA-induced reduction in locomotor activity (MA-treated mice [7]): appeared to be the most effective in preventing reduction in motor activity | effect on MPTP-induced decrease in locomotor activity (MPTP-treated mice [8]): significantly increased | effect on mortality induced by LPS (LPS-treated mice [9]): most pronounced | effect on MPTP-induced nigral loss in TH-IR (MPTP-treated mice [10]): significantly attenuated | CPP response of the compound itself (cocaine-treated mice [11]; AM 251 0.3, HM 20, ACEA 2 mg/kg, no cocaine): Neither saline-, AM 251 (0.3 mg/kg)-treated nor HM (20 mg/kg)-treated animals showed any CPP response | effect on cocaine-induced CPP (cocaine-treated mice [11]; cocaine 10 mg/kg): significantly reduced | effect on LPS-induced reductions in striatal DA, DOPAC and HVA (LPS-treated mice [12]; 24 mg/kg pretreatment): significantly protected | Concentration DOPAC in the striatum (LPS-treated mice [12]; morphinan 12 (mg/kg) + LPS): 83 ± 10 ng/100 mg wet tissue | Concentration HVA in the striatum (LPS-treated mice [12]; morphinan 12 (mg/kg) + LPS): 86 ± 8 ng/100 mg wet tissue | Concentration DA in the striatum (LPS-treated mice [12]; morphinan 12 (mg/kg) + LPS, mean ± S.E.M., 8 animals): 682 ± 70 ng/100 mg wet tissue | Concentration DOPAC in the striatum (LPS-treated mice [12]; morphinan 24 (mg/kg) + LPS): 112 ± 11^d ng/100 mg wet tissue | Concentration HVA in the striatum (LPS-treated mice [12]; morphinan 24 (mg/kg) + LPS): 102 ± 10^b ng/100 mg wet tissue | Concentration DA in the striatum (LPS-treated mice [12]; morphinan 24 (mg/kg) + LPS): 916 ± 98^d ng/100 mg wet tissue | effect on cocaine-induced FRA-IR in the striatum (cocaine-treated mice [13]): apparently attenuated
